This passage reports IC50 results from patent US9340590B2 (priority 2011, dated 2016).

Positions of bridges follow the written chain, without caps; N, C: chain ends. Non-standard residues stand in square brackets, D forms with d. Residues, ends and D or L forms follow the SMILES beside them. NMeW = CN[C@@H](Cc1c[nH]c2ccccc12)C(=O)O; NMeF = CN[C@@H](Cc1ccccc1)C(=O)O; Phg = N[C@H](C(=O)O)c1ccccc1

Assay in all cases: cell-based
One assay has as its target hNav1.7 (Homo sapiens, UniProt Q15858). The class given is cell-based. Particulars: Table 26; IonWorks Quattro, use; […]; read-out: IWQ Use Nav1.7. For orientation: Patch clamp records ionic current or voltage across a cell membrane.
The next assay addresses hNav1.5 (Homo sapiens, UniProt Q14524). Particulars: Table 26; IonWorks Quattro, use; […]; read-out: IWQ Use Nav1.5.
The target in a further assay is hNav1.3 (Homo sapiens, UniProt Q9NY46). Particulars: Table 26; IonWorks Quattro, use; […]; read-out: IWQ Use Nav1.3.
hNav1.3, sequence (Q9NY46 whole entry, looked up): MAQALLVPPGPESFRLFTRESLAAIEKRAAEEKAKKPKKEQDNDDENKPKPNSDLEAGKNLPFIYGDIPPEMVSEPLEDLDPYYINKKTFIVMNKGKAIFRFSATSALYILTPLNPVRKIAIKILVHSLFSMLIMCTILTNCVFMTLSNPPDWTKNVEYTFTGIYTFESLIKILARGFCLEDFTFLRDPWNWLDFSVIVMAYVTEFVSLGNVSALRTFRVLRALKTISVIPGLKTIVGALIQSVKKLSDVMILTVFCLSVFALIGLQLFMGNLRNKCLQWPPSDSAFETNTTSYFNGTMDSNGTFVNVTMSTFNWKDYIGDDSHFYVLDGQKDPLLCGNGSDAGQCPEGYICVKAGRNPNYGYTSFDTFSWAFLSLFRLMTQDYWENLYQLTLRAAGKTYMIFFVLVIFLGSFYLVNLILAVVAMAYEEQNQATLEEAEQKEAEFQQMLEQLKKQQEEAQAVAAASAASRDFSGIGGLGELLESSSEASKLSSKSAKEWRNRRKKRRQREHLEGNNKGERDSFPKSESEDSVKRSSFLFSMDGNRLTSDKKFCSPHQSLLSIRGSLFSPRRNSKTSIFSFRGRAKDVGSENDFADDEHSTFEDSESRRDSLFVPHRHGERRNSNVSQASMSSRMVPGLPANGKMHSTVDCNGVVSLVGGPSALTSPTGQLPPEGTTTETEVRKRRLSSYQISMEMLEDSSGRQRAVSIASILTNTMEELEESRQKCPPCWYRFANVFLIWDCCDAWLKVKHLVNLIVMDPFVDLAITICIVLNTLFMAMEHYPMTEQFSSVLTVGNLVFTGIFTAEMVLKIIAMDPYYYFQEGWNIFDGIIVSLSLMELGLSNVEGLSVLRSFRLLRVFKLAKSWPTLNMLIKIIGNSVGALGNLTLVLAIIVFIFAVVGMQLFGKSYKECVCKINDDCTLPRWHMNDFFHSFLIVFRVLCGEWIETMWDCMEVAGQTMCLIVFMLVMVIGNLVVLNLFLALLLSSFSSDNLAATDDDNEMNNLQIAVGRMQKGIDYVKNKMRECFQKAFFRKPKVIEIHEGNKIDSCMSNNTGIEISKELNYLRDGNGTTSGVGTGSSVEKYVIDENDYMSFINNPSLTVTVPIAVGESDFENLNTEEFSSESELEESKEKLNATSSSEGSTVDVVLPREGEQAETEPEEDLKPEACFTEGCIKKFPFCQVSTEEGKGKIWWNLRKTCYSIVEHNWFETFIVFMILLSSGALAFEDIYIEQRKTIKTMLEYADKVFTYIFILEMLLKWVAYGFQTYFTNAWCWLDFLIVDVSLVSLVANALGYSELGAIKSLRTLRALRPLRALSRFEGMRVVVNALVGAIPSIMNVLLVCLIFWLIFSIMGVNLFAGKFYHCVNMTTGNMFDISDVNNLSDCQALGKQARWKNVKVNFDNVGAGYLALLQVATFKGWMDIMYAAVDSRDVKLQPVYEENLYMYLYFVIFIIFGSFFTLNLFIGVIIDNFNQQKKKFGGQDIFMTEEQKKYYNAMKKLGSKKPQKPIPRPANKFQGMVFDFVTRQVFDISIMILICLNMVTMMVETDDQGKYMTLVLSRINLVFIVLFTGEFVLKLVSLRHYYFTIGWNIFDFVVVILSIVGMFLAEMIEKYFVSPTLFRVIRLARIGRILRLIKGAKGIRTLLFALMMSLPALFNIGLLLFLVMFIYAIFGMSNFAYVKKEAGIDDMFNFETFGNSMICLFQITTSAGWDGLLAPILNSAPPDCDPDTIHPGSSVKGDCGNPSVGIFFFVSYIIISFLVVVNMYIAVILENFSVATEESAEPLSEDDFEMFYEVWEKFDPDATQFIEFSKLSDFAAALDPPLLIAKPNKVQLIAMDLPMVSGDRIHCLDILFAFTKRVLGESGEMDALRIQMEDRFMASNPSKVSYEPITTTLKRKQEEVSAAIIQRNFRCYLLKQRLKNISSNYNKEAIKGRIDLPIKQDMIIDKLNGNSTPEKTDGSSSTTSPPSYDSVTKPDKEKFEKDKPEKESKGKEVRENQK

hNav1.7, sequence (Q15858 whole entry, looked up): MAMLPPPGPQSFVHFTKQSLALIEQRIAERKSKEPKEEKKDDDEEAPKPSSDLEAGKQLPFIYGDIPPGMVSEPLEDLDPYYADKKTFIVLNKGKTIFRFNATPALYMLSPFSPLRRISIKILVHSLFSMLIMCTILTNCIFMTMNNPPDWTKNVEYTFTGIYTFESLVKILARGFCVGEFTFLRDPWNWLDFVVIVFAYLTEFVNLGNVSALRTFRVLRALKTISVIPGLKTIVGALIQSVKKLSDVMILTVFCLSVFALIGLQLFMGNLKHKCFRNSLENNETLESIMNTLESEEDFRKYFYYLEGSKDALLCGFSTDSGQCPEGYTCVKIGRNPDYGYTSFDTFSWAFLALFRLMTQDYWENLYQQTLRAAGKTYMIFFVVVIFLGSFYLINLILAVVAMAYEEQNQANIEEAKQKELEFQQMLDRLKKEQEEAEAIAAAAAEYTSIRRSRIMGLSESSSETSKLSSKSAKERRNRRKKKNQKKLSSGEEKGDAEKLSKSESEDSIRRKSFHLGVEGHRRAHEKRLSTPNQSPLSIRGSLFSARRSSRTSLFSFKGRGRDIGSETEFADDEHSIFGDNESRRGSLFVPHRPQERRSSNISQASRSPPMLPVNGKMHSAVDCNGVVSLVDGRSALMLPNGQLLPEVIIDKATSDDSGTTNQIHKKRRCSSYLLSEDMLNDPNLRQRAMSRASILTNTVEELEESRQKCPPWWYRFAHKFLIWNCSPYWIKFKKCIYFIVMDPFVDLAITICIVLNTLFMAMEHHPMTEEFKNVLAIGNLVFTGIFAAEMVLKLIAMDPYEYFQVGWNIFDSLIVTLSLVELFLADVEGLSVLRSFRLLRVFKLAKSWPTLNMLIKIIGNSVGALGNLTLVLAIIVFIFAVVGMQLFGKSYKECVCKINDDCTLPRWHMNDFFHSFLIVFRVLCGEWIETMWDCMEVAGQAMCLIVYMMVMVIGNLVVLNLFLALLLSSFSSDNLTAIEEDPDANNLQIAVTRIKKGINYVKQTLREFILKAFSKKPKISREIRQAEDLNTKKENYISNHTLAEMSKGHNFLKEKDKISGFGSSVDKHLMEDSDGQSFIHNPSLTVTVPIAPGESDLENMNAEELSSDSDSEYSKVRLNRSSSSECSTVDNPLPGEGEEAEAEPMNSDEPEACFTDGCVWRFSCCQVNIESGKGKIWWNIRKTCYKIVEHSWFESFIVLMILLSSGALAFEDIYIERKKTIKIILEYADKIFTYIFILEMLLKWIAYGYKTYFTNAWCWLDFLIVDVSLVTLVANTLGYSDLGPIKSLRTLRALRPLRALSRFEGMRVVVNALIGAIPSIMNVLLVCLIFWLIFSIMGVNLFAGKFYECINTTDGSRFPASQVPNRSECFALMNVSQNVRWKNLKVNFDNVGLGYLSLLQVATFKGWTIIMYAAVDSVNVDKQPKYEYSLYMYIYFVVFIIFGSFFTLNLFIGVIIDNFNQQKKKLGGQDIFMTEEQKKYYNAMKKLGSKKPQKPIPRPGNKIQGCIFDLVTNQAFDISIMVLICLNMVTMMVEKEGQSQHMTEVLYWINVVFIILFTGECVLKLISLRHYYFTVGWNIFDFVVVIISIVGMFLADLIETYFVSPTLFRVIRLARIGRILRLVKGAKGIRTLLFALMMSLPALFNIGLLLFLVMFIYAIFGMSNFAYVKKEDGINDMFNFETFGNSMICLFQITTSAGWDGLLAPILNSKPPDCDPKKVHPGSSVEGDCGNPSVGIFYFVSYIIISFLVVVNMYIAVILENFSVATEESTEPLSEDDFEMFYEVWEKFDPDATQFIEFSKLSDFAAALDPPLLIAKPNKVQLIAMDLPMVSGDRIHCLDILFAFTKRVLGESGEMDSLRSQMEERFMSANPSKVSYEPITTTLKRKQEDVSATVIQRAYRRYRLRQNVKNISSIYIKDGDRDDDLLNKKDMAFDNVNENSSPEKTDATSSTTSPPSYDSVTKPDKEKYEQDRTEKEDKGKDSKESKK

Take `CC[C@H](C)[C@@H]1NC(=O)[C@@H]2CSSC[C@@H]3NC(=O)[C@H](C(C)C)NC(=O)[C@H](CC(C)C)NC(=O)[C@H](CC(N)=O)NC(=O)[C@@H]4CCCN4C(=O)[C@H](CCCNC(=N)N)NC(=O)[C@H](CSSC[C@H](NC(=O)[C@@H](N)CC(=O)O)C(=O)N[C@@H](CC(C)C)C(=O)NCC(=O)N[C@@H](Cc4ccccc4)C(=O)N[C@@H](CCSC)C(=O)N[C@@H](CCCNC(=N)N)C(=O)N[C@@H](CCCCN)C(=O)N2)NC(=O)[C@H](CSSC[C@@H](C(=O)N[C@@H](CCCCN)C(=O)N[C@@H](Cc2ccc(O)cc2)C(=O)N(C)[C@@H](Cc2ccccc2)C(=O)N[C@@H](Cc2ccccc2)C(N)=O)NC(=O)[C@H](Cc2c[nH]c4ccccc24)NC(=O)[C@H](CCCCN)NC(=O)[C@H](Cc2c[nH]cn2)NC(=O)[C@H]([C@@H](C)O)NC(=O)[C@H](CCCNC(=N)N)NC(=O)[C@H](CO)NC3=O)NC(=O)[C@H](CCCCN)NC(=O)[C@H](CC(=O)O)NC(=O)[C@H](CC(N)=O)NC(=O)[C@H](CC(=O)O)NC(=O)[C@@H]2CCCN2C1=O` [compound 388] (H-DCLGFMRKCIPDNDKCCRPNLVCSRTHKWCKY[NMeF]F-NH2; disulfide 2-17, 9-23, 16-30): the IC50 was 1280 nM on hNav1.7, > 5000 nM at hNav1.5 and 1090 nM on hNav1.3.
On to `CC[C@H](C)[C@@H]1NC(=O)[C@@H]2CSSC[C@@H]3NC(=O)[C@H](C(C)C)NC(=O)[C@H](CC(C)C)NC(=O)[C@H](CC(N)=O)NC(=O)[C@@H]4CCCN4C(=O)[C@H](CCCNC(=N)N)NC(=O)[C@H](CSSC[C@H](NC(=O)[C@@H](N)CC(=O)O)C(=O)N[C@@H](CC(C)C)C(=O)NCC(=O)N[C@@H](Cc4ccccc4)C(=O)N[C@@H](CCSC)C(=O)N[C@@H](CCCNC(=N)N)C(=O)N[C@@H](CCCCN)C(=O)N2)NC(=O)[C@H](CSSC[C@@H](C(=O)N[C@@H](CCCCN)C(=O)N[C@@H](Cc2ccc(O)cc2)C(=O)N(C)[C@@H](Cc2c[nH]c4ccccc24)C(=O)N[C@@H](Cc2ccccc2)C(N)=O)NC(=O)[C@H](Cc2c[nH]c4ccccc24)NC(=O)[C@H](CCCCN)NC(=O)[C@H](Cc2c[nH]cn2)NC(=O)[C@H]([C@@H](C)O)NC(=O)[C@H](CCCNC(=N)N)NC(=O)[C@H](CO)NC3=O)NC(=O)[C@H](CCCCN)NC(=O)[C@H](CC(=O)O)NC(=O)[C@H](CC(N)=O)NC(=O)[C@H](CC(=O)O)NC(=O)[C@@H]2CCCN2C1=O` [compound 389] (H-DCLGFMRKCIPDNDKCCRPNLVCSRTHKWCKY[NMeW]F-NH2; disulfide 2-17, 9-23, 16-30), for which the values for the IC50 on hNav1.7, on hNav1.5 and on hNav1.3 were 350 nM, > 5000 nM and 290 nM, respectively.
In the case of `CC[C@H](C)[C@@H]1NC(=O)[C@@H]2CSSC[C@@H]3NC(=O)[C@H](C(C)C)NC(=O)[C@H](CC(C)C)NC(=O)[C@H](CC(N)=O)NC(=O)[C@@H]4CCCN4C(=O)[C@H](CCCNC(=N)N)NC(=O)[C@H](CSSC[C@H](NC(=O)[C@@H](N)CC(=O)O)C(=O)N[C@@H](CC(C)C)C(=O)NCC(=O)N[C@@H](Cc4ccccc4)C(=O)N[C@@H](CCSC)C(=O)N[C@@H](CCCNC(=N)N)C(=O)N[C@@H](CCCCN)C(=O)N2)NC(=O)[C@H](CSSC[C@@H](C(=O)N[C@@H](CCCCN)C(=O)N[C@@H](Cc2ccc(O)cc2)C(=O)N[C@@H](Cc2ccccc2)C(=O)N[C@@H](Cc2ccccc2)C(N)=O)NC(=O)[C@H](Cc2c[nH]c4ccccc24)NC(=O)[C@H](CCCCN)NC(=O)[C@H](Cc2c[nH]cn2)NC(=O)[C@H]([C@@H](C)O)NC(=O)[C@H](CCCNC(=N)N)NC(=O)[C@H](CO)NC3=O)NC(=O)[C@H](CCCCN)NC(=O)[C@H](CC(=O)O)NC(=O)[C@H](CC(N)=O)NC(=O)[C@H](CC(=O)O)NC(=O)[C@@H]2CCCN2C1=O` [compound 390] (H-DCLGFMRKCIPDNDKCCRPNLVCSRTHKWCKYFF-NH2; disulfide 2-17, 9-23, 16-30), the results for the IC50 on hNav1.7, at hNav1.5 and on hNav1.3 were 60 nM, 8660 nM and 40 nM, respectively.
Take `CC[C@H](C)[C@@H]1NC(=O)[C@@H]2CSSC[C@@H]3NC(=O)[C@H](C(C)C)NC(=O)[C@H](CC(C)C)NC(=O)[C@H](CC(N)=O)NC(=O)[C@@H]4CCCN4C(=O)[C@H](CCCNC(=N)N)NC(=O)[C@H](CSSC[C@H](NC(=O)[C@@H](N)CC(=O)O)C(=O)N[C@@H](CC(C)C)C(=O)NCC(=O)N[C@@H](Cc4ccccc4)C(=O)N[C@@H](CCSC)C(=O)N[C@@H](CCCNC(=N)N)C(=O)N[C@@H](CCCCN)C(=O)N2)NC(=O)[C@H](CSSC[C@@H](C(=O)N[C@@H](CCCCN)C(=O)N[C@@H](Cc2ccc(O)cc2)C(=O)N[C@@H](CCSC)C(=O)N[C@@H](Cc2ccccc2)C(N)=O)NC(=O)[C@H](Cc2c[nH]c4ccccc24)NC(=O)[C@H](CCCCN)NC(=O)[C@H](Cc2c[nH]cn2)NC(=O)[C@H]([C@@H](C)O)NC(=O)[C@H](CCCNC(=N)N)NC(=O)[C@H](CO)NC3=O)NC(=O)[C@H](CCCCN)NC(=O)[C@H](CC(=O)O)NC(=O)[C@H](CC(N)=O)NC(=O)[C@H](CC(=O)O)NC(=O)[C@@H]2CCCN2C1=O` [compound 391] (H-DCLGFMRKCIPDNDKCCRPNLVCSRTHKWCKYMF-NH2; disulfide 2-17, 9-23, 16-30): the IC50 was 70 nM on hNav1.7, 15100 nM at hNav1.5 and 80 nM at hNav1.3.
Regarding `CC[C@H](C)[C@@H]1NC(=O)[C@@H]2CSSC[C@@H]3NC(=O)[C@H](C(C)C)NC(=O)[C@H](CC(C)C)NC(=O)[C@H](CC(N)=O)NC(=O)[C@@H]4CCCN4C(=O)[C@H](CCCNC(=N)N)NC(=O)[C@H](CSSC[C@H](NC(=O)[C@@H](N)CC(=O)O)C(=O)N[C@@H](CC(C)C)C(=O)NCC(=O)N[C@@H](Cc4ccccc4)C(=O)N[C@@H](CCSC)C(=O)N[C@@H](CCCNC(=N)N)C(=O)N[C@@H](CCCCN)C(=O)N2)NC(=O)[C@H](CSSC[C@@H](C(=O)N[C@@H](CCCCN)C(=O)N[C@@H](Cc2ccc(O)cc2)C(=O)N[C@@H](Cc2c[nH]cn2)C(=O)N[C@@H](Cc2ccccc2)C(N)=O)NC(=O)[C@H](Cc2c[nH]c4ccccc24)NC(=O)[C@H](CCCCN)NC(=O)[C@H](Cc2c[nH]cn2)NC(=O)[C@H]([C@@H](C)O)NC(=O)[C@H](CCCNC(=N)N)NC(=O)[C@H](CO)NC3=O)NC(=O)[C@H](CCCCN)NC(=O)[C@H](CC(=O)O)NC(=O)[C@H](CC(N)=O)NC(=O)[C@H](CC(=O)O)NC(=O)[C@@H]2CCCN2C1=O` [compound 392] (H-DCLGFMRKCIPDNDKCCRPNLVCSRTHKWCKYHF-NH2; disulfide 2-17, 9-23, 16-30), the IC50 at hNav1.7 was 20 nM; at hNav1.5 it was 8160 nM; on hNav1.3, 10 nM.
For `CC[C@H](C)[C@@H]1NC(=O)[C@@H]2CSSC[C@@H]3NC(=O)[C@H](C(C)C)NC(=O)[C@H](CC(C)C)NC(=O)[C@H](CC(N)=O)NC(=O)[C@@H]4CCCN4C(=O)[C@H](CCCNC(=N)N)NC(=O)[C@H](CSSC[C@H](NC(=O)[C@@H](N)CC(=O)O)C(=O)N[C@@H](CC(C)C)C(=O)NCC(=O)N[C@@H](Cc4ccccc4)C(=O)N[C@@H](CCSC)C(=O)N[C@@H](CCCNC(=N)N)C(=O)N[C@@H](CCCCN)C(=O)N2)NC(=O)[C@H](CSSC[C@@H](C(=O)N[C@@H](CCCCN)C(=O)N[C@@H](Cc2ccc(O)cc2)C(=O)N[C@H](C(=O)N[C@@H](Cc2ccccc2)C(N)=O)c2ccccc2)NC(=O)[C@H](Cc2c[nH]c4ccccc24)NC(=O)[C@H](CCCCN)NC(=O)[C@H](Cc2c[nH]cn2)NC(=O)[C@H]([C@@H](C)O)NC(=O)[C@H](CCCNC(=N)N)NC(=O)[C@H](CO)NC3=O)NC(=O)[C@H](CCCCN)NC(=O)[C@H](CC(=O)O)NC(=O)[C@H](CC(N)=O)NC(=O)[C@H](CC(=O)O)NC(=O)[C@@H]2CCCN2C1=O` [compound 393] (H-DCLGFMRKCIPDNDKCCRPNLVCSRTHKWCKY[Phg]F-NH2; disulfide 2-17, 9-23, 16-30) the same measures were 20 nM, 7630 nM and 40 nM.
For `CC[C@H](C)[C@@H]1NC(=O)[C@@H]2CSSC[C@@H]3NC(=O)[C@H](C(C)C)NC(=O)[C@H](CC(C)C)NC(=O)[C@H](CC(N)=O)NC(=O)[C@@H]4CCCN4C(=O)[C@H](CCCNC(=N)N)NC(=O)[C@H](CSSC[C@H](NC(=O)[C@@H](N)CC(=O)O)C(=O)N[C@@H](CC(C)C)C(=O)NCC(=O)N[C@@H](Cc4ccccc4)C(=O)N[C@@H](CCSC)C(=O)N[C@@H](CCCNC(=N)N)C(=O)N[C@@H](CCCCN)C(=O)N2)NC(=O)[C@H](CSSC[C@@H](C(=O)N[C@@H](CCCCN)C(=O)N[C@@H](Cc2ccc(O)cc2)C(=O)N[C@@H](CC(N)=O)C(=O)N[C@@H](Cc2ccccc2)C(N)=O)NC(=O)[C@H](Cc2c[nH]c4ccccc24)NC(=O)[C@H](CCCCN)NC(=O)[C@H](Cc2c[nH]cn2)NC(=O)[C@H]([C@@H](C)O)NC(=O)[C@H](CCCNC(=N)N)NC(=O)[C@H](CO)NC3=O)NC(=O)[C@H](CCCCN)NC(=O)[C@H](CC(=O)O)NC(=O)[C@H](CC(N)=O)NC(=O)[C@H](CC(=O)O)NC(=O)[C@@H]2CCCN2C1=O` [compound 394] (H-DCLGFMRKCIPDNDKCCRPNLVCSRTHKWCKYNF-NH2; disulfide 2-17, 9-23, 16-30) the same measures were 360 nM, 7940 nM and 70 nM.
For `CC[C@H](C)[C@@H]1NC(=O)[C@@H]2CSSC[C@@H]3NC(=O)[C@H](C(C)C)NC(=O)[C@H](CC(C)C)NC(=O)[C@H](CC(N)=O)NC(=O)[C@@H]4CCCN4C(=O)[C@H](CCCNC(=N)N)NC(=O)[C@H](CSSC[C@H](NC(=O)[C@@H](N)CC(=O)O)C(=O)N[C@@H](CC(C)C)C(=O)NCC(=O)N[C@@H](Cc4ccccc4)C(=O)N[C@@H](CCSC)C(=O)N[C@@H](CCCNC(=N)N)C(=O)N[C@@H](CCCCN)C(=O)N2)NC(=O)[C@H](CSSC[C@@H](C(=O)N[C@@H](CCCCN)C(=O)N[C@@H](Cc2ccc(O)cc2)C(=O)N[C@@H](CC(=O)O)C(=O)N[C@@H](Cc2ccccc2)C(N)=O)NC(=O)[C@H](Cc2c[nH]c4ccccc24)NC(=O)[C@H](CCCCN)NC(=O)[C@H](Cc2c[nH]cn2)NC(=O)[C@H]([C@@H](C)O)NC(=O)[C@H](CCCNC(=N)N)NC(=O)[C@H](CO)NC3=O)NC(=O)[C@H](CCCCN)NC(=O)[C@H](CC(=O)O)NC(=O)[C@H](CC(N)=O)NC(=O)[C@H](CC(=O)O)NC(=O)[C@@H]2CCCN2C1=O` [compound 395] (H-DCLGFMRKCIPDNDKCCRPNLVCSRTHKWCKYDF-NH2; disulfide 2-17, 9-23, 16-30) the same measures were 770 nM, 8790 nM and 170 nM.
